Measured values reported in US11370798B2 (Vertex Pharmaceuticals Incorporated, priority 2012, dated 2022).

Tested on: HCT116 colorectal cancer cells
Assay: Cisplatin sensitization assay (96 h cell viability MTS);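 also: Test-compound concentration that lowers the Cisplatin IC50 by a set fold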
Format: cell-based
Conditions: compound and Cisplatin added simultaneously, Cisplatin sensitization value
How it was run: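 Compound and cisplatin added together as a full matrix of 2-fold serial dilutions from a top final concentration of 10 μM; cells incubated 96 h at 37° C, 5% CO2. Viability then read by MTS after 1 h further incubation; sensitization value reported in μM bins.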

Structure (SMILES) | Cisplatin Sensitization Assay
CN1CCN(c2c(F)cncc2NC(=O)c2c(N)nn3cc(F)cnc23)CC1=O [I-N-212, 2-amino-6-fluoro-N-(5-fluoro-4-(4-methyl-3-oxopiperazin-1-yl)pyridin-3-yl)pyrazolo[1,5-a]pyrimidine-3-carboxamide] | +++ (Cisplatin sensitization value of <0.02 μM)
Nc1nn2cc(F)cnc2c1C(=O)Nc1cncc(F)c1N1CCC(CN2CCCC2=O)CC1 [I-N-213, 2-amino-6-fluoro-N-(5-fluoro-4-(4-((2-oxopyrrolidin-1-yl)methyl)piperidin-1-yl)pyridin-3-yl)pyrazolo[1,5-a]pyrimidine-3-carboxamide] | +++ (Cisplatin sensitization value of <0.02 μM)
CN1CCCCC1C(=O)N1CCN(c2c(F)cncc2NC(=O)c2c(N)nn3cc(F)cnc23)CC1 (centres unmarked) [I-N-214, 2-amino-6-fluoro-N-(5-fluoro-4-(4-(1-methylpiperidine-2-carbonyl)piperazin-1-yl)pyridin-3-yl)pyrazolo[1,5-a]pyrimidine-3-carboxamide] | ++ (Cisplatin sensitization value>0.02 μM but <0.2 μM)
CS(=O)(=O)CC1CCN(c2ccncc2NC(=O)c2c(N)nn3cc(F)cnc23)CC1 [I-N-215, 2-amino-6-fluoro-N-(4-(4-((methylsulfonyl)methyl)piperidin-1-yl)pyridin-3-yl)pyrazolo[1,5-a]pyrimidine-3-carboxamide] | +++ (Cisplatin sensitization value of <0.02 μM)
CN1CC2(CCN(c3ccncc3NC(=O)c3c(N)nn4cc(F)cnc34)CC2)OC1=O [I-N-216, 2-amino-6-fluoro-N-(4-(3-methyl-2-oxo-1-oxa-3,8-diazaspiro[4.5]decan-8-yl)pyridin-3-yl)pyrazolo[1,5-a]pyrimidine-3-carboxamide] | +++ (Cisplatin sensitization value of <0.02 μM)
Nc1nn2cc(F)cnc2c1C(=O)Nc1cnccc1N1CCN2C(=O)CC[C@H]2C1 [I-N-217, (S)-2-amino-6-fluoro-N-(4-(6-oxohexahydropyrrolo[1,2-a]pyrazin-2(1H)-yl)pyridin-3-yl)pyrazolo[1,5-a]pyrimidine-3-carboxamide] | ++ (Cisplatin sensitization value>0.02 μM but <0.2 μM)
Cc1nc(C)n(-c2ccncc2NC(=O)c2c(N)nn3cc(F)cnc23)n1 [I-N-218, 2-amino-N-(4-(3,5-dimethyl-1H-1,2,4-triazol-1-yl)pyridin-3-yl)-6-fluoropyrazolo[1,5-a]pyrimidine-3-carboxamide] | + (Cisplatin sensitization value>0.2 μM but <5 μM)
Nc1nn2cc(F)cnc2c1C(=O)Nc1cnccc1-n1ccnc1C(F)(F)F [I-N-219, 2-amino-6-fluoro-N-(4-(2-(trifluoromethyl)-1H-imidazol-1-yl)pyridin-3-yl)pyrazolo[1,5-a]pyrimidine-3-carboxamide] | +++ (Cisplatin sensitization value of <0.02 μM)
CC1(C)CCCN1c1ccncc1NC(=O)c1c(N)nn2cc(F)cnc12 [I-N-220, 2-amino-N-(4-(2,2-dimethylpyrrolidin-1-yl)pyridin-3-yl)-6-fluoropyrazolo[1,5-a]pyrimidine-3-carboxamide] | ++ (Cisplatin sensitization value>0.02 μM but <0.2 μM)
CS(=O)(=O)C1CCCN(c2ccncc2NC(=O)c2c(N)nn3cc(F)cnc23)C1 (centres unmarked) [I-N-221, 2-amino-6-fluoro-N-(4-(3-(methylsulfonyl)piperidin-1-yl)pyridin-3-yl)pyrazolo[1,5-a]pyrimidine-3-carboxamide] | ++ (Cisplatin sensitization value>0.02 μM but <0.2 μM)
Nc1nn2cc(F)cnc2c1C(=O)Nc1cnccc1N1CC(=O)N2CCCC2C1 (centres unmarked) [I-N-222, 2-amino-6-fluoro-N-(4-(4-oxohexahydropyrrolo[1,2-a]pyrazin-2(1H)-yl)pyridin-3-yl)pyrazolo[1,5-a]pyrimidine-3-carboxamide] | ++ (Cisplatin sensitization value>0.02 μM but <0.2 μM)
Cc1ccnn1-c1ccncc1NC(=O)c1c(N)nn2cc(F)cnc12 [I-N-223, 2-amino-6-fluoro-N-(4-(5-methyl-1H-pyrazol-1-yl)pyridin-3-yl)pyrazolo[1,5-a]pyrimidine-3-carboxamide] | ++ (Cisplatin sensitization value>0.02 μM but <0.2 μM)
CN1C[C@@H]2CCN(c3ccncc3NC(=O)c3c(N)nn4cc(F)cnc34)C[C@@H]2C1=O [I-N-224, 2-amino-6-fluoro-N-(4-((3aR,7aR)-2-methyl-3-oxohexahydro-1H-pyrrolo[3,4-c]pyridin-5(6H)-yl)pyridin-3-yl)pyrazolo[1,5-a]pyrimidine-3-carboxamide] | + (Cisplatin sensitization value>0.2 μM but <5 μM)
Cc1ccn(-c2ccncc2NC(=O)c2c(N)nn3cc(F)cnc23)n1 [I-N-225, 2-amino-6-fluoro-N-(4-(3-methyl-1H-pyrazol-1-yl)pyridin-3-yl)pyrazolo[1,5-a]pyrimidine-3-carboxamide] | ++ (Cisplatin sensitization value>0.02 μM but <0.2 μM)
Nc1nn2cc(F)cnc2c1C(=O)Nc1cnccc1N1CCC2(CC1)COC2 [I-N-226, N-(4-(2-oxa-7-azaspiro[3.5]nonan-7-yl)pyridin-3-yl)-2-amino-6-fluoropyrazolo[1,5-a]pyrimidine-3-carboxamide] | +++ (Cisplatin sensitization value of <0.02 μM)
CN1CCOCC1C(=O)N1CCN(c2c(F)cncc2NC(=O)c2c(N)nn3cc(F)cnc23)CC1 (centres unmarked) [I-N-227, 2-amino-6-fluoro-N-(5-fluoro-4-(4-(4-methylmorpholine-3-carbonyl)piperazin-1-yl)pyridin-3-yl)pyrazolo[1,5-a]pyrimidine-3-carboxamide] | +++ (Cisplatin sensitization value of <0.02 μM)
Nc1nn2cc(F)cnc2c1C(=O)Nc1cncc(F)c1N1CCN(CC(=O)N2CCC2)CC1 [I-N-228, 2-amino-N-(4-(4-(2-(azetidin-1-yl)-2-oxoethyl)piperazin-1-yl)-5-fluoropyridin-3-yl)-6-fluoropyrazolo[1,5-a]pyrimidine-3-carboxamide] | +++ (Cisplatin sensitization value of <0.02 μM)
CN1CC2(CCN(c3c(F)cncc3NC(=O)c3c(N)nn4cc(F)cnc34)CC2)OC1=O [I-N-229, 2-amino-6-fluoro-N-(5-fluoro-4-(3-methyl-2-oxo-1-oxa-3,8-diazaspiro[4.5]decan-8-yl)pyridin-3-yl)pyrazolo[1,5-a]pyrimidine-3-carboxamide] | +++ (Cisplatin sensitization value of <0.02 μM)
Nc1nn2cc(F)cnc2c1C(=O)Nc1cnccc1N1CCC(N2CCCC2=O)CC1 [I-N-230, 2-amino-6-fluoro-N-(4-(4-(2-oxopyrrolidin-1-yl)piperidin-1-yl)pyridin-3-yl)pyrazolo[1,5-a]pyrimidine-3-carboxamide] | +++ (Cisplatin sensitization value of <0.02 μM)
CN1CC2(CCC1=O)CCN(c1ccncc1NC(=O)c1c(N)nn3cc(F)cnc13)CC2 [I-N-231, 2-amino-6-fluoro-N-(4-(2-methyl-3-oxo-2,9-diazaspiro[5.5]undecan-9-yl)pyridin-3-yl)pyrazolo[1,5-a]pyrimidine-3-carboxamide] | +++ (Cisplatin sensitization value of <0.02 μM)
Nc1nn2cc(F)cnc2c1C(=O)Nc1cncc(F)c1N1CC(=O)N2CCCC2C1 (centres unmarked) [I-N-232, 2-amino-6-fluoro-N-(5-fluoro-4-(4-oxohexahydropyrrolo[1,2-a]pyrazin-2(1H)-yl)pyridin-3-yl)pyrazolo[1,5-a]pyrimidine-3-carboxamide] | ++ (Cisplatin sensitization value>0.02 μM but <0.2 μM)
CN1CCN2CCN(c3ccncc3NC(=O)c3c(N)nn4cc(F)cnc34)CC2C1=O (centres unmarked) [I-N-233, 2-amino-6-fluoro-N-(4-(8-methyl-9-oxohexahydro-1H-pyrazino[1,2-a]pyrazin-2(6H)-yl)pyridin-3-yl)pyrazolo[1,5-a]pyrimidine-3-carboxamide] | ++ (Cisplatin sensitization value>0.02 μM but <0.2 μM)
CN(C)C(=O)C1CN(c2ccncc2NC(=O)c2c(N)nn3cc(F)cnc23)CCO1 (centres unmarked) [I-N-234, 4-(3-(2-amino-6-fluoropyrazolo[1,5-a]pyrimidine-3-carboxamido)pyridin-4-yl)-N,N-dimethylmorpholine-2-carboxamide] | + (Cisplatin sensitization value>0.2 μM but <5 μM)
CN1C(=O)CCC12CCN(c1ccncc1NC(=O)c1c(N)nn3cc(F)cnc13)CC2 [I-N-235, 2-amino-6-fluoro-N-(4-(1-methyl-2-oxo-1,8-diazaspiro[4.5]decan-8-yl)pyridin-3-yl)pyrazolo[1,5-a]pyrimidine-3-carboxamide] | ++ (Cisplatin sensitization value>0.02 μM but <0.2 μM)
CN1CC2(CCN(c3ccncc3NC(=O)c3c(N)nn4cc(F)cnc34)CC2)CC1=O [I-N-236, 2-amino-6-fluoro-N-(4-(2-methyl-3-oxo-2,8-diazaspiro[4.5]decan-8-yl)pyridin-3-yl)pyrazolo[1,5-a]pyrimidine-3-carboxamide] | +++ (Cisplatin sensitization value of <0.02 μM)
Cc1cncc(NC(=O)c2c(N)nn3cc(F)cnc23)c1-n1nccc1C [I-N-237] | + (Cisplatin sensitization value>0.2 μM but <5 μM)
Nc1nn2cc(F)cnc2c1C(=O)Nc1cnccc1N1CCN2C(=O)OCC2C1 (centres unmarked) [I-N-238, 2-amino-6-fluoro-N-(4-(3-oxotetrahydro-1H-oxazolo[3,4-a]pyrazin-7(3H)-yl)pyridin-3-yl)pyrazolo[1,5-a]pyrimidine-3-carboxamide] | ++ (Cisplatin sensitization value>0.02 μM but <0.2 μM)
Nc1nn2cc(F)cnc2c1C(=O)Nc1cncc(F)c1N1CCC2(CC1)COC2 [I-N-239, 2-amino-6-fluoro-N-(5-fluoro-4-(2-oxa-7-azaspiro[3.5]nonan-7-yl)pyridin-3-yl)pyrazolo[1,5-a]pyrimidine-3-carboxamide] | +++ (Cisplatin sensitization value of <0.02 μM)
CN1CCN2CCN(c3c(F)cncc3NC(=O)c3c(N)nn4cc(F)cnc34)CC2C1=O (centres unmarked) [I-N-240, 2-amino-6-fluoro-N-(5-fluoro-4-(8-methyl-9-oxohexahydro-1H-pyrazino[1,2-a]pyrazin-2(6H)-yl)pyridin-3-yl)pyrazolo[1,5-a]pyrimidine-3-carboxamide] | ++ (Cisplatin sensitization value>0.02 μM but <0.2 μM)
